The supplement of paper PMC6045584
± gives the standard deviation of the averaged measurements.

Compound: CC[C@@]1(O)C(=O)OCc2c1cc1n(c2=O)Cc2cc3ccccc3nc2-1 [CAMPTOTHECIN]
Test: surviving fraction relative to DMSO-only wells; higher = less growth inhibition
Details: 0.5 nM; exposure time: 5 days
How it was run: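 Inhibitors at 0.5, 1, 5, 10, 50, 100, 500 and 1000 nM were applied continuously for five days to tumour cell lines seeded in log phase at 250–500 cells per well in 384-well plates 24 hours earlier. Viability was measured by CellTiter-Glo luminescence and expressed as surviving fraction relative to the median of DMSO-only wells. Luminescence was taken after 10 minutes at room temperature.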

Test System | surviving fraction
22RV1 PROSTATE | 0.938 ± 0.095
93VU HEADNECK | 0.844 ± 0.091
A549 LUNG | 0.909 ± 0.032
CAL51 BREAST | 0.923 ± 0.077
CAL72 BONE | 0.985 ± 0.029
CAL120 BREAST | 0.901 ± 0.069
CASKI CERVIX | 0.798 ± 0.11
COLO320DM LARGE INTESTINE | 0.381 ± 0.011
DU4475 BREAST | 0.759 ± 0.11
G292 BONE | 0.901 ± 0.015
H23 LUNG | 0.919 ± 0.02
HCC38 BREAST | 0.946 ± 0.16
HCC1806 BREAST | 0.717 ± 0.092
HOS BONE | 0.902 ± 0.0096
HOSMNG BONE | 0.889 ± 0.11
HSSYII SYNOVIAL | 0.187 ± 0.025

Test System | surviving fraction
HU09 BONE | 0.84 ± 0.015
HUO3N1 BONE | 0.761 ± 0.25
JIMT1 BREAST | 0.894 ± 0.018
LNCAP PROSTATE | 0.98 ± 0.035
MDAMB134 BREAST | 0.662 ± 0.057
MDAMB231 BREAST | 0.887 ± 0.025
MDAMB361 BREAST | 0.664 ± 0.069
MDAMB436 BREAST | 0.678 ± 0.074
MDAMB468 BREAST | 0.872 ± 0.061
MHM BONE | 0.9523 ± 0.0021
NCIH441 LUNG | 0.951 ± 0.045
NY BONE | 0.894 ± 0.052
OS25HAL BONE | 0.877 ± 0.013
OSHN BONE | 0.83 ± 0.013
SKBR3 BREAST | 0.83 ± 0.073
SUM149.B1*.S BREAST | 0.467 ± 0.023

Same assay, conditions: 1 nM; exposure time: 5 days

Test System | surviving fraction
22RV1 PROSTATE | 0.957 ± 0.053
93VU HEADNECK | 0.838 ± 0.038
A549 LUNG | 0.933 ± 0.021
CAL51 BREAST | 0.881 ± 0.05
CAL72 BONE | 0.991 ± 0.021
CAL120 BREAST | 0.819 ± 0.0086
CASKI CERVIX | 0.821 ± 0.062
COLO320DM LARGE INTESTINE | 0.929 ± 0.12
DU4475 BREAST | 0.643 ± 0.064
G292 BONE | 0.874 ± 0.047
H23 LUNG | 0.916 ± 0.041
HCC38 BREAST | 0.926 ± 0.15
HCC1806 BREAST | 0.661 ± 0.046
HOS BONE | 0.889 ± 0.017
HOSMNG BONE | 0.973 ± 0.035
HSSYII SYNOVIAL | 0.686 ± 0.035

Test System | surviving fraction
HU09 BONE | 0.82 ± 0.06
HUO3N1 BONE | 0.955 ± 0.14
JIMT1 BREAST | 0.893 ± 0.058
LNCAP PROSTATE | 0.802 ± 0.047
MDAMB134 BREAST | 0.625 ± 0.048
MDAMB231 BREAST | 0.902 ± 0.028
MDAMB361 BREAST | 0.737 ± 0.045
MDAMB436 BREAST | 0.677 ± 0.055
MDAMB468 BREAST | 0.832 ± 0.095
MHM BONE | 0.969 ± 0.031
NCIH441 LUNG | 0.896 ± 0.03
NY BONE | 0.905 ± 0.021
OS25HAL BONE | 0.862 ± 0.037
OSHN BONE | 0.842 ± 0.007
SKBR3 BREAST | 0.806 ± 0.029
SUM149.B1*.S BREAST | 0.853 ± 0.024

Same assay, conditions: 5 nM; exposure time: 5 days

Test System | surviving fraction
22RV1 PROSTATE | 0.586 ± 0.044
93VU HEADNECK | 0.805 ± 0.036
A549 LUNG | 0.964 ± 0.017
